Data from patent US20030186887A1, “Compounds for detection of infection by chlamydophila abortus” (priority 2000, published 2003).
Where “and” joins values, the source holds several entries; their conditions need not be identical. Equal entries are not always repeated. Ends that are not written are not given here. * marks the point of attachment. Biotin = O=C1N[C@H]2[C@H](CS[C@H]2CCCCC(=O)*)N1

What was measured:
[1] = test system: sera from ewes known not to have been infected with C. abortus; SPF lamb antisera; assay: ELISA, specificity of peptides with sera from uninfected ewes and SPF lamb antisera (first Table 4); assay type: binding, sheep; parameters: reactivity with serum (quantity not given): unit not given here
Description: (§1) Application of the peptide mixture is performed as follows:
(§2) Two dilutions of standard serum are used.
Specificities of Peptides 2-9,2-10, 1B, 1A/1A and 4B/4B as tested with sera from ewes known not to have been infected with C. abortus, and which had shown positive reactivity in previous tests with various forms of VS 1 and VS2.

[2] = test system: antibodies to C. abortus; assay: ELISA, serological reactivity of biotinylated peptides against serum dilutions (Tables 1 and 2); assay type: binding, sheep
Description: as §1, §2
The data illustrate that the length of compound has a major impact on serological reactivity.
Thus, substitutions within the core epitopes described in this invention are possible without too much loss in compound serological reactivity.

[3] = SPF lamb antiserum 2406/2 C.ab, vaccinated with 28/68 (C. abortus)
[4] = SPF lamb antiserum 2407/2 W73, vaccinated with W73 (C. pecorum)
[5] = SPF lamb antiserum F6/2 Cap.ab, vaccinated with Cap. abortion 15 (C. abortus)
[6] = SPF lamb serum 2397/1, pre-vaccination
[7] = SPF lamb antiserum 2397/2 C.ab, vaccinated with S26/3 (C. abortus)
[8] = SPF lamb antiserum 2401/2 C.ab, vaccinated with S26/3 (C. abortus)
[9] = SPF lamb antiserum 2405/2 C.ab, vaccinated with 28/28 (C. abortus)

Substance | reactivity with serum (quantity not given) [1, 3] | reactivity with serum (quantity not given) [1, 4] | reactivity with serum (quantity not given) [1, 5] | reactivity with serum (quantity not given) [1, 6] | reactivity with serum (quantity not given) ([1]; serum of animal no. A2213) | reactivity with serum (quantity not given) ([1]; serum of animal no. B2123) | Net Optical Density ([2]; serum dilution 1/100) | Net Optical Density ([2]; serum dilution 1/200) | Net Optical Density ([2]; serum dilution 1/400) | Net Optical Density ([2]; serum dilution 1/800) | Net Optical Density ([2]; serum dilution 1/1600) | Net Optical Density ([2]; serum dilution 1/3200) | Net Optical Density ([2]; serum dilution 1/6400) | reactivity with serum (quantity not given) [1, 7] | reactivity with serum (quantity not given) [1, 8] | reactivity with serum (quantity not given) [1, 9] | reactivity with serum (quantity not given) ([1]; serum of animal no. 1354R) | further results
ATALDTSNKFATALDTSNKFA (ATALDTSNKFATALDTSNKFA) [Compound 4B/4B] | OVER | 0.8 | 0.7 | 0.8 | OVER | 0.4 | – | – | – | – | – | – | – | – | – | – | – | reactivity with serum (quantity not given) ([1]; SPF lamb antiserum F1/2 S45, vaccinated with S45 (C. suis)): 1.2; reactivity with serum (quantity not given) ([1]; SPF lamb antiserum F8/2 P787, vaccinated with P787 (C. pecorum)): 0.4; reactivity with serum (quantity not given) ([1]; SPF lamb serum F1/1, pre-vaccination): 0.5; reactivity with serum (quantity not given) ([1]; serum of animal no. 3178): 0.6; reactivity with serum (quantity not given) ([1]; serum of animal no. 3201): 1.7; reactivity with serum (quantity not given) ([1]; serum of animal no. A2261): 0.4; reactivity with serum (quantity not given) ([1]; serum of animal no. X2895): 0.5; reactivity with serum (quantity not given) ([1]; serum of animal no. X2899): 0.4; reactivity with serum (quantity not given) ([1]; serum of animal no. Z148): 0.7; reactivity with serum (quantity not given) ([1]; serum of animal no. Z2618): 0.55; reactivity with serum (quantity not given) ([1]; serum of animal no. Z2646): 1.0; reactivity with serum (quantity not given) ([1]; serum of animal no. Z2739): 0.4
Biotin-CLIGVKGSSAAD [Compound 2-4] | – | – | – | – | – | – | 2.173 | 1.241 | 0.572 | 0.278 | 0.133 | 0.064 | 0.040 | – | – | – | – | –
Biotin-KGSSIAAD [Compound 2-1] | – | – | – | – | – | – | 0.000 | 0.000 | 0.000 | 0.000 | 0.000 | 0.000 | 0.000 | – | – | – | – | reactivity (in words) ([2]; studies of Table 1): no reactivity whatsoever
Biotin-KKKKKGLIGVKGSS L AAD [Compound 2-11] | – | – | – | – | – | – | 2.008 | 1.230 | 0.637 | 0.299 | 0.133 | 0.053 | 0.026 | – | – | – | – | effect of substituting isoleucine with leucine within Epitope 2 on reactivity ([2]; 2-9 compared with 2-3, 2-11 compared with 2-5): small decrease in reactivity
Biotin-KKKKKGLIGVKGSSIAAD [Compound 2-5] | – | – | – | – | – | – | 2.344 | 1/468 and 1.468 | 0.771 | 0.358 | 0.156 | 0.066 | 0.036 | – | – | – | – | –
Biotin-KKKKKKGSSIAAD [Compound 2-2] | – | – | – | – | – | – | 1.515 | 0.786 | 0.385 | 0.174 | 0.068 | 0.046 | 0.024 | – | – | – | – | reactivity relative to that displayed by Compound 2-3 ([2]; studies of Table 1): approximately 70%
Biotin-KKKKKKKKKKKGSSIAAD [Compound 2-3] | – | – | – | – | – | – | 2.075 | 1.133 | 0.540 | 0.214 | 0.095 | 0.031 | 0.007 | – | – | – | – | –
GVKGSSIAADQGVKGSSIAADQ (GVKGSSIAADQGVKGSSIAADQ) [Compound 2-10] | 1.6 | – | – | – | – | – | – | – | – | – | – | – | – | 3.1 | 1.5 | 2.6 | 0.9 | reactivity with serum (quantity not given) ([1]; serum of animal no. 1715T): 0.3; reactivity with serum (quantity not given) ([1]; serum of animal no. 2948): 0.5; reactivity with serum (quantity not given) ([1]; serum of animal no. 3174): 1.3; reactivity with serum (quantity not given) ([1]; serum of animal no. A2332): 1.0; reactivity with serum (quantity not given) ([1]; serum of animal no. Z2600): 1.1; reactivity with serum (quantity not given) ([1]; serum of animal no. Z2708): 0.55
KTITGMTGTAAANYKTITGM (KTITGMTGTAAANYKTITGM) [Compound 1B] | OVER | 1.3 | 0.9 | OVER | OVER | 1.55 | – | – | – | – | – | – | – | OVER | OVER | OVER | 2.3 | reactivity with serum (quantity not given) ([1]; serum of animal no. 3178): 0.7; reactivity with serum (quantity not given) ([1]; serum of animal no. Z2611): 0.6; reactivity with serum (quantity not given) ([1]; serum of animal no. Z2680): 0.5
TGTAAANYKTTGTAAANYKT (TGTAAANYKTTGTAAANYKT) [Compound 1A/1A] | OVER | 1.8 | 0.9 | OVER | OVER | 2.0 | – | – | – | – | – | – | – | OVER | OVER | OVER | 2.3 | specificity compared with 1B (in words) [1]: less specific; reactivity with serum (quantity not given) ([1]; SPF lamb antiserum F4/2 84-796, vaccinated with 84-796 (C. pecorum)): 0.4; reactivity with serum (quantity not given) ([1]; SPF lamb antiserum F7/2 P787, vaccinated with P787 (C. pecorum)): 0.5; reactivity with serum (quantity not given) ([1]; serum of animal no. 2948): 0.6; reactivity with serum (quantity not given) ([1]; serum of animal no. A2261): 0.7; reactivity with serum (quantity not given) ([1]; serum of animal no. Y10-8-14): 1.2; reactivity with serum (quantity not given) ([1]; serum of animal no. Y10-8-37): 0.8; reactivity with serum (quantity not given) ([1]; serum of animal no. Z2611): 1.0; reactivity with serum (quantity not given) ([1]; serum of animal no. Z2646): 0.4; reactivity with serum (quantity not given) ([1]; serum of animal no. Z2656): 0.66
